# Laboratory results as given in publication doi:10.1101/2025.02.18.638599v1 (biorxiv, 2025).
# Tests used:
# [1] = target: T1, AcrB (Escherichia coli, UniProt P31224); assay: label-free microscale thermophoresis; assay type: binding
# T1 sequence (P31224 1-1049): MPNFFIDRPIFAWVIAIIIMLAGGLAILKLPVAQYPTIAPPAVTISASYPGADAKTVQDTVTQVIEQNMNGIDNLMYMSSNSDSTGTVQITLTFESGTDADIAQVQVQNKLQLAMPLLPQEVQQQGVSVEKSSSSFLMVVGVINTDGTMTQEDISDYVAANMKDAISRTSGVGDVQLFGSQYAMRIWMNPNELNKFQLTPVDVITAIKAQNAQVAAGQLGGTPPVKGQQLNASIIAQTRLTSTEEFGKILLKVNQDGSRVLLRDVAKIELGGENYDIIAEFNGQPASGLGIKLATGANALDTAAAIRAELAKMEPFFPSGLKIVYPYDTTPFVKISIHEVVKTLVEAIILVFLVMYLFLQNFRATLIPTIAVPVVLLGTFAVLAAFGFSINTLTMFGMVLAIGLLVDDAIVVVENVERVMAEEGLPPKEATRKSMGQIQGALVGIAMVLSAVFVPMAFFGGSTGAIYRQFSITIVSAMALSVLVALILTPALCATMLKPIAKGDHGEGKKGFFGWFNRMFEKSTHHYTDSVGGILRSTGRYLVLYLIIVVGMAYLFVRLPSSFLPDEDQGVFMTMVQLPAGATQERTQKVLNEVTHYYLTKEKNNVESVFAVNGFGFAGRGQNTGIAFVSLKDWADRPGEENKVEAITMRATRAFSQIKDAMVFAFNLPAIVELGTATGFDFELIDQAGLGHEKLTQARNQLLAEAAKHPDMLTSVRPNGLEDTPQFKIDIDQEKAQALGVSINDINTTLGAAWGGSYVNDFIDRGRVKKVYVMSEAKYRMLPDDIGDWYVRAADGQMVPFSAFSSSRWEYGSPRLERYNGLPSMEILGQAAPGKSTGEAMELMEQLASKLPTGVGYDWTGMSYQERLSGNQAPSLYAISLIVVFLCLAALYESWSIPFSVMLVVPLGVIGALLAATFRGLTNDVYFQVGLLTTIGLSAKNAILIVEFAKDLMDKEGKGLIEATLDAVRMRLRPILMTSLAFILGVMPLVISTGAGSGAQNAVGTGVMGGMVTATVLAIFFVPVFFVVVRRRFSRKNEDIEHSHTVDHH
# [2] = tested on: E. coli JW5503; assay: microbe, parasite or virus in culture; conditions: Escherichia coli, JW5503, 24 h, read-out: MIC, E. coli JW5503
# [3] = tested on: E. coli BW25113; assay: microbe, parasite or virus in culture; conditions: Escherichia coli, BW25113, 24 h, read-out: MIC, E. coli BW25113
# [4] = target: T2, TolC (Escherichia coli, UniProt P02930); assay: label-free microscale thermophoresis; assay type: binding
# T2 sequence (P02930 23-493): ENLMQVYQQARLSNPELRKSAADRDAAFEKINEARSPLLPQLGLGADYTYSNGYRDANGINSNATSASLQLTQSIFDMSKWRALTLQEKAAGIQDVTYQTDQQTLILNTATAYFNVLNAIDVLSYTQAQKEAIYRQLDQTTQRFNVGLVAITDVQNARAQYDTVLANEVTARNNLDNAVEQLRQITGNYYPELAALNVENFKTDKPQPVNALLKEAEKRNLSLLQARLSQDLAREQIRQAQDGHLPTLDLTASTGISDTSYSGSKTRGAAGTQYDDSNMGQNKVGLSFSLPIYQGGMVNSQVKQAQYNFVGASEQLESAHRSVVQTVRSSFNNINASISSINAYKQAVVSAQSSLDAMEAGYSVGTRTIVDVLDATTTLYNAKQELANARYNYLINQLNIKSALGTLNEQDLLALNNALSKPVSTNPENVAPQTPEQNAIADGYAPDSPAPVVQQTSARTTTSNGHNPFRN
# [5] = tested on: E. coli BW25113; set-up: species or system Escherichia coli; conditions: compound alone; 24 h; inhibitor
Kd [1] [µM],MIC [2] [µM],MIC [3] [µM],Kd [4] [µM],"MIC, E. coli BW25113 [5] [µM]",Structure (SMILES)
198,> 75,> 125,282,,CNC(=O)c1ccccc1Nc1nc(Nc2ccc3c(c2OC)CCC[C@H](N2CCN(CCO)CC2)C3)ncc1Cl [CEP-37440]
,,,,>125,COc1c(N)ccc2c1CCCC(N1CCN(CCO)CC1)C2 (centres unmarked) [LP-115]
